Assays:
L 1210 leukemia [1] = experiment: Test 10: comparison of antitumoral activity with known products, L 1210 (Tables V-VII); format: in vivo, mouse; details: J+3
Method: Test 10: Comparison of the antitumoral activity of the compound according to example 7 with that of known products
The compound of example 7, i.e. 1-(γ-diethylaminopropyl)amino-5-methyl-dipyrido-[4,3-b][3,4-f] indole or known compounds were injected into L 1210 leukemic mice 1 or 3 days after the inoculation of the cells at the doses indicated in tables V to VII and the mean survival time (MST) and the precentage of increased life span (ILS %) were measured.
Indications concerned the known products used in this example and particularly their antitumoral properties, their secondary effects and their use in man may be found in "La Chimiotherapie des Cancers", by G. MATHE and M. KENIS Expansion Scientifique Francaise, 3rd edition, Paris 1975.

mice = experiment: Test 21: toxicity after intraperitoneal injection; details: for time of deaths after drug administration: IP; for minimal quantity resulting in 100% deaths: ip, 43200 min
Method: All drugs were dissolved in aqueous solutions adjusted at pH 5 with acetic acid and inoculated to the mice under a volume of 0.1 ml I.P. after dilution in Mac Coy's medium.
The toxicity of the drugs after intraperitoneal injection was estimated from the mortality rate up to the 30th day.

L1210 leukemia = experiment: Test 17: length of substituting chain, L1210 (Table XIII); format: in vivo, mouse
Method: Test 17: Relationship between the length of the substituting chain and the activity.
However compound 21 is less toxic (50 mg/kg for compound 21 and 25 mg/kg for compound 23), it has a higher ILS% than compound 23 and 1 mouse survived up to 60 days.

L 1210 leukemia [2] = experiment: Test 1: antitumoral properties on L 1210 leukemia (Table I); format: in vivo, mouse; details: 0,1 mg/mouse
Method: The lower animal antitumoral properties of the compounds according to the invention have been determined by their curative action on inoculated test L-1210 leukemia. [ZUBROD C. G., Proc. Nat. Acad. Sci. 1972, 69, 1042-1047 and SCHEPARTZ SA. SCREENING, 1971, CANCER Chemother. Rep. Part 3 vol.2 p.3].
This leukemia is maintained in ascitic form by passage (i.p. route) on CBDl (C57 B16×DBA/2)F1 mice. The preparation to be tested are injected by the intraperitoneal route at least one day after the inoculation of the cells (one injection only). The results are expressed in increased life span per cent (ILS %) according to KESSEL et al. Cancer Res. 1971, 31, 1883-1887) or in percentage of the number of cells killed by the product (the survival of the animals is proportional to the number of cells injected).
The following tests were made in groups of 10 mice, unless stipulated to the contrary.
Test 1: Study of the antitumoral properties of the compounds of the invention on L 1210 leukemia
The lower animal antitumoral properties of the compounds according to the invention were determined by their curative action on test inoculated L 1210 leukemia.
This leukemia was maintained on CBD 1 (C 57 B 16×DBA/2) F1 mice. The compounds to be tested were injected by the IP route one or more days after the inoculation of the cells (single injection). The results obtained, shown in table I hereinafter, are expressed in percentage of increase of life span (ILS %) and in percentage of the number of cells killed by the compound to be tested, the survival of the animals being proportional to the number of cells injected.
The percentage of the like span ILS % (Cancer. Res. 1971, 31, 1883-1887) is the following ratio: [formula] S^t =survival of the treated animals S^c =survival of the control animals

[3] = test system: tumoral strain derived from the murine leukemia due to the C. FRIEND virus; experiment: Test 7: antitumoral activity in vitro on Friend leukemia tumoral strain; format: cell-based; details: HUM = 1
Method: Test 7: Study of the antitumoral activity in vitro
This activity was measured on a tumoral strain derived from the murine leukemia due to the C. FRIEND virus.
The tumoral cells multiply in suspension in a "RPMI 1640" medium (Catalogue of GIBCO Bio-cult. Ltd. Washington Road, Sandyford Industrial Estate, PAISLEY PA 3 4EP, Renfrewshire, Scotland) supplemented with 20% of embryonary calf serum, penicillin and streptomycine. The duplication time of these cells is 11 hours. The growth fraction is equal to 1 or very close to 1 (all the cells are in the cycle). The cultures are sub-culturedat time t=0 at the concentration of 2.10^5 cells per ml in Falcon dishes containing 4 ml of medium. After twenty four hours, the product to be tested was added, i.e. at a moment when the cultures are in exponential phase of growth. Twenty four hours after the addition of the product, the cells are counted and the percentage of living cells determined by an exclusion test using "trypan" blue.

[4] = Table V, 10^4 cells, doses mg/mouse: example 7 0.2, Thiotepa 0.1, Mitomycine 0.016, BCNU 0.1, Methotrexate 0.250
[5] = Table V, 10^4 cells, mg/mouse: example 7 0.2, Thiotepa 0.1, Mitomycine 0.016, BCNU 0.1, Methotrexate 0.250, Endoxan 4
[6] = Table VI, 10^5 cells, mg/mouse: Thiotepa 0.1, Mitomycine C 0.016, BCNU 0.1, Methotrexate 0.250, example 7 0.2, Endoxan 4

O=NN(CCCl)C(=O)NCCCl [BCNU]
ILS % (L 1210 leukemia [1]; [4]): 0.9% | MTS (mean survival time) (L 1210 leukemia [1]; [4]): 11.1 | Range of death (L 1210 leukemia [1]; [5]): 10 to 12 days | ILS % (L 1210 leukemia [1]; [6]): 0% | MTS (mean survival time) (L 1210 leukemia [1]; [6]): 8.8 | Range of death (L 1210 leukemia [1]; [6]): 8-9

CCN(CC)CCCC(C)Nc1nccc2c(C)c3[nH]c4ccncc4c3cc12 (stereo not drawn) [Example 10, 1-[(α-methyl-σ-diethylamino-butyl)-amino]-5-methyl-dipyrido-[4,3-b][3,4-f] indole]
time of deaths after drug administration (mice): 4 to 6 days | minimal quantity resulting in 100% deaths (mice; mouse, in vivo): 50 mg/kg | ILS % (L1210 leukemia; day +4): 56.25% | Survivors up to 60 days (L1210 leukemia; day +4): 0 | MST (L1210 leukemia; day +4, control MST 11.2): 17.5 | Range of death (L1210 leukemia; day +4, control MST 11.2): 12-20

Cc1c2ccnc(NCCN(C)C)c2cc2c1[nH]c1ccncc12 [Example 9, 1-(β-dimethylaminoethyl)amino-5-methyl-dipyrido-[4,3-b][3,4-f] indole]
time of deaths after drug administration (mice): 4 to 6 days | toxicity (toxic dose) (mice; mouse, in vivo): 25 mg/kg | minimal quantity resulting in 100% deaths (mice; mouse, in vivo): 25 mg/kg | activity against L1210 leukemia (in words) (L1210 leukemia; Table XIII summary): active against L1210 leukemia | ILS % (L1210 leukemia; day +1): 65.2% | Survivors up to 60 days (L1210 leukemia; day +1): 0 | MST (L1210 leukemia; day +1, control MST 8.8): 14.6 | Range of death (L1210 leukemia; day +1, control MST 8.8): 11-18

Cc1c2ccnc(Cl)c2cc2c1[nH]c1ccncc12 [Example 6, 1-chloro-5-methyl-dipyrido [4,3-b][3,4-f] indole]
toxicity in L 1210 test (L 1210 leukemia [2]): toxic | ILS % (difference with the controls) (L 1210 leukemia [2]; 10^4 and 10^3 cells): no difference | Activity (ratio of the LD50 of HUM to the LD50 of the product tested) [3]: 0.3

CN(Cc1cnc2nc(N)nc(N)c2n1)c1ccc(C(=O)N[C@@H](CCC(=O)O)C(=O)O)cc1 [Methotrexate]
ILS % (L 1210 leukemia [1]; [4]): 44.62% | MTS (mean survival time) (L 1210 leukemia [1]; [4]): 15.9 | Range of death (L 1210 leukemia [1]; [5]): 15 to 17 days | ILS % (L 1210 leukemia [1]; [6]): 39.35% | MTS (mean survival time) (L 1210 leukemia [1]; [6]): 12.62 | Range of death (L 1210 leukemia [1]; [6]): 12-14

— patent US4444776A, “Dipyrido (4,3-B) (3,4-F) indoles, process for obtaining them, therapeutical use and pharmaceutical compositions” (priority 1977, dated 1984)
